Test results from publication PMC10004634 (PLOS ONE, 2023).
Read-outs that look alike come from different tables or passages of the source.

Columns and labels:
Experiment in all cases: biochemical
Set-up in all cases: KINOMEscan scanMAX competition binding, DNA-tagged kinases, qPCR read-out, percent control at 300 nM
[1] = biological target: MAP4K4 (Homo sapiens, UniProt O95819)
[2] = biological target: STK35 (Homo sapiens, UniProt Q8TDR2)
[3] = biological target: T1, NEK2 (Homo sapiens, UniProt P51955)
T1 sequence (P51955 1-445): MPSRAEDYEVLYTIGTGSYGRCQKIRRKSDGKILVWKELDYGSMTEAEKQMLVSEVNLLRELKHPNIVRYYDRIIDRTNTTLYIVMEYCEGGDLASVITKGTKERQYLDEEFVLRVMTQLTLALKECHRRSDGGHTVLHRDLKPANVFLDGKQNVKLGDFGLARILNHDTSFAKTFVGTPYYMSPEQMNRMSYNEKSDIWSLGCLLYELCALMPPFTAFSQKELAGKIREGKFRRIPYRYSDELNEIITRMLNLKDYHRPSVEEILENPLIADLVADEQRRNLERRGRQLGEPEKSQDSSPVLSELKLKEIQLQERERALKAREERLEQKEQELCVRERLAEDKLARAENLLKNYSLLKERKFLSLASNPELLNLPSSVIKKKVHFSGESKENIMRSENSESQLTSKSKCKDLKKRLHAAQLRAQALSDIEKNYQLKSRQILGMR

[4] = biological target: IRAK1 (Homo sapiens, UniProt P51617)
[5] = biological target: PLK3 (Homo sapiens, UniProt Q9H4B4)
[6] = biological target: ERBB2 (Homo sapiens, UniProt P04626)
[7] = biological target: CLK3 (Homo sapiens, UniProt P49761)
[8] = biological target: T2, TEC (Homo sapiens, UniProt P42680)
T2 sequence (P42680 1-631): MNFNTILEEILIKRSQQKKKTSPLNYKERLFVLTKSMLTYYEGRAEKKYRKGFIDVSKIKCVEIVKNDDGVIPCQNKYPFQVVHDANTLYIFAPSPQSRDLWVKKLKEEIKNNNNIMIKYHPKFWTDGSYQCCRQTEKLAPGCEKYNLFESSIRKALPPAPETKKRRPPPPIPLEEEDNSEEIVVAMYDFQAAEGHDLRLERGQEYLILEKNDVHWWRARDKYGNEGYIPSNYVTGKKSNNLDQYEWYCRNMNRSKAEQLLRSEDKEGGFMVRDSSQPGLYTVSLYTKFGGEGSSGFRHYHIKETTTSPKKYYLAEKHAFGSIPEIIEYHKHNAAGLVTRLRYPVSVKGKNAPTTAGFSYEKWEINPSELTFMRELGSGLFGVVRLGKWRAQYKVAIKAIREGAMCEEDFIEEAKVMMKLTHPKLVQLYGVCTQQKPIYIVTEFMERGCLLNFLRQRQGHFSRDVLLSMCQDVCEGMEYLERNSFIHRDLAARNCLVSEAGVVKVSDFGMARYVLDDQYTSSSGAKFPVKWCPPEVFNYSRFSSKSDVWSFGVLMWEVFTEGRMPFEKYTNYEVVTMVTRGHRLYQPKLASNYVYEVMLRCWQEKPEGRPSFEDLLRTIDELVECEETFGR

[9] = biological target: ROCK2 (Homo sapiens, UniProt O75116)
[10] = biological target: INSR (Homo sapiens, UniProt P06213)
[11] = biological target: CSNK1E (Homo sapiens, UniProt P49674)
[12] = biological target: TNK2 (Homo sapiens, UniProt Q07912)
[13] = biological target: PIM2 (Homo sapiens, UniProt Q9P1W9)
[14] = biological target: CAMK4 (Homo sapiens, UniProt Q16566)
[15] = read-out: Percent control / Acalabrutinib
[16] = read-out: Percent control / Ibrutinib
[17] = read-out: Percent control / Tirabrutinib
[18] = read-out: Percent control / Zanubrutinib

Sequence of MAP4K4 (O95819 whole entry): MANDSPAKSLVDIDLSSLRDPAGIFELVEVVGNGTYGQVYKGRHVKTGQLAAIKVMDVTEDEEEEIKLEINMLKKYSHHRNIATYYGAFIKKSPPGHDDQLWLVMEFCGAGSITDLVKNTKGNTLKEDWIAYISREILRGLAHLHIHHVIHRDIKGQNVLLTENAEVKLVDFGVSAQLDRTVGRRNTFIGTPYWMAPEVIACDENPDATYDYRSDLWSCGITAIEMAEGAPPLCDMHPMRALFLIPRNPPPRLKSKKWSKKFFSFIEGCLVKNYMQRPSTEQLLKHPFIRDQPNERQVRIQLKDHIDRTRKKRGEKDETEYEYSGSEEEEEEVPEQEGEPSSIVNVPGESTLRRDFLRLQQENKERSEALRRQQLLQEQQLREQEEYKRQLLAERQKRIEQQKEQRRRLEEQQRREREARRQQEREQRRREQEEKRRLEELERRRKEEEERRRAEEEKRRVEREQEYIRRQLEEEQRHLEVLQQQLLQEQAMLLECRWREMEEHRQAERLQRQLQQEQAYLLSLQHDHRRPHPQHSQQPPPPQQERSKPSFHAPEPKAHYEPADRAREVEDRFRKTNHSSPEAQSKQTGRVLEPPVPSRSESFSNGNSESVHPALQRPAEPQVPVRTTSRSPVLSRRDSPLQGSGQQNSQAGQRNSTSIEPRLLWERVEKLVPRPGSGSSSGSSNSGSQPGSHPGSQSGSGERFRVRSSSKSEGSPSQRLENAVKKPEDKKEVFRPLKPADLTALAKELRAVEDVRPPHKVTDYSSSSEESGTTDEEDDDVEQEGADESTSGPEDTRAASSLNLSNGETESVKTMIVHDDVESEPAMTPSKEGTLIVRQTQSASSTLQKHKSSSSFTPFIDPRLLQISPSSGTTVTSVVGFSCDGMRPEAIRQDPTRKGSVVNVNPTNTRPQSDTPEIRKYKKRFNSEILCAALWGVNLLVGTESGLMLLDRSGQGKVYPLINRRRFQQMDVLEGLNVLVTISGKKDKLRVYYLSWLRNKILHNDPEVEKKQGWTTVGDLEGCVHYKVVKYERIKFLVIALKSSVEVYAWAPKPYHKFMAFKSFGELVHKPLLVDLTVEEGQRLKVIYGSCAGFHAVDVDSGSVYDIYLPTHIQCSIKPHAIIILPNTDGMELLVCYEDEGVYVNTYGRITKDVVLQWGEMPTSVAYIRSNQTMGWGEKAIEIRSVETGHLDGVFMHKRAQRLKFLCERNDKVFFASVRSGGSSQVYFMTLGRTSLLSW
Sequence of CLK3 (P49761 whole entry): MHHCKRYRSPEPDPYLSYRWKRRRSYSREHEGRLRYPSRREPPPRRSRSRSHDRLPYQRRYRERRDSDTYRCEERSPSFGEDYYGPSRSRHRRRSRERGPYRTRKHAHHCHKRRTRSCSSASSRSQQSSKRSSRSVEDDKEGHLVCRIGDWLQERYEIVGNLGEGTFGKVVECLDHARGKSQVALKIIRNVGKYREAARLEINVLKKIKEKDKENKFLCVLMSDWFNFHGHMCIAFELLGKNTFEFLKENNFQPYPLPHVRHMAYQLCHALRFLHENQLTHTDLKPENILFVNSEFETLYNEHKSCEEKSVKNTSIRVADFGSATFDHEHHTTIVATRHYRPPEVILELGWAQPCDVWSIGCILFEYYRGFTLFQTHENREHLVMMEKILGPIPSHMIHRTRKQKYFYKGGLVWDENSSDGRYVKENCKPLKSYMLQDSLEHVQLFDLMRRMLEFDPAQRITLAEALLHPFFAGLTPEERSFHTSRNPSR
Sequence of CAMK4 (Q16566 whole entry, looked up): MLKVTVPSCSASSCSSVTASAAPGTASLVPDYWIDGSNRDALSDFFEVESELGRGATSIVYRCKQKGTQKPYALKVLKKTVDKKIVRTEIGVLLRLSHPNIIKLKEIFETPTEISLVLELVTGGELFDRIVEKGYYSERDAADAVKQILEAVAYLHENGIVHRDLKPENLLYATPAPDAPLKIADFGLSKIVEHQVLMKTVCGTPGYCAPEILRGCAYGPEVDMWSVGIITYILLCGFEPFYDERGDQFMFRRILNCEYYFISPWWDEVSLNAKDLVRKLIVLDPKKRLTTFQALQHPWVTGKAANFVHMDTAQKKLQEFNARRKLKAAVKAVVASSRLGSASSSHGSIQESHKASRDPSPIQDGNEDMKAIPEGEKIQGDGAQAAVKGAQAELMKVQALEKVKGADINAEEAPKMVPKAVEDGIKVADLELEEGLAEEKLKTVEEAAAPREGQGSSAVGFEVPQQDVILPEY
Sequence of PLK3 (Q9H4B4 whole entry): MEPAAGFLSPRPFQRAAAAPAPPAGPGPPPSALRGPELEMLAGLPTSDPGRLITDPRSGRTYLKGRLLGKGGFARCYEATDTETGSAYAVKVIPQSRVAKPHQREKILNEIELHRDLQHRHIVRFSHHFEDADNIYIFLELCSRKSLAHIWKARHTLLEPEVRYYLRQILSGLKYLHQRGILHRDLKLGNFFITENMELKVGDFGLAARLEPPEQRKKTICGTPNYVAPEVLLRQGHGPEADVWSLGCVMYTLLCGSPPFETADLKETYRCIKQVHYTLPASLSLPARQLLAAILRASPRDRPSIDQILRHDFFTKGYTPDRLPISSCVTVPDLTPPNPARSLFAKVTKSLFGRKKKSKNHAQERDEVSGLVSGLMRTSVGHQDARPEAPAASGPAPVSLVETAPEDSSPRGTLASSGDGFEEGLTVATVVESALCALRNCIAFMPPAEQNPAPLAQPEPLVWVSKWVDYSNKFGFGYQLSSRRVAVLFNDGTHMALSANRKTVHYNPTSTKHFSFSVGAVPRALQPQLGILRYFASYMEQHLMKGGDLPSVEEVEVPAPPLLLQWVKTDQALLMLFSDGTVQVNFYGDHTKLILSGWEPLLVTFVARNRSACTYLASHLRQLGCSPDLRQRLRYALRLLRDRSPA
Sequence of IRAK1 (P51617 whole entry): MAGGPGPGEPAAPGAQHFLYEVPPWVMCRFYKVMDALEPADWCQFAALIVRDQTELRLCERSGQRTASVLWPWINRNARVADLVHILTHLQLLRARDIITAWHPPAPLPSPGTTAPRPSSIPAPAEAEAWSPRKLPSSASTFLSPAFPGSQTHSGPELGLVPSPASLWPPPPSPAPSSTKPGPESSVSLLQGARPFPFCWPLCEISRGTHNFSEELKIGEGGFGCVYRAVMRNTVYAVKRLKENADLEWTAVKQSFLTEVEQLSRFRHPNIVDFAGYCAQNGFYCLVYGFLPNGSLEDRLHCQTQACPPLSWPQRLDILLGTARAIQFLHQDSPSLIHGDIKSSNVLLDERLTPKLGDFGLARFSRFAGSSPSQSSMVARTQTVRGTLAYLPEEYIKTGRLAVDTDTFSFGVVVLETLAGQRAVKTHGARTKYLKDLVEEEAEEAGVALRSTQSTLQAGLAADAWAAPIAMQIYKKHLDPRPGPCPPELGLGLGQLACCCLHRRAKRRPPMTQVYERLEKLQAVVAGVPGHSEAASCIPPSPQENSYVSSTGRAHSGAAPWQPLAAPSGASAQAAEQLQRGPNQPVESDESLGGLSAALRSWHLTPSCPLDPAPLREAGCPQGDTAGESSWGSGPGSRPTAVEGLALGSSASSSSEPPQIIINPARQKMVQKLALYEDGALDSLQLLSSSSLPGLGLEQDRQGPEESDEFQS
Sequence of STK35 (Q8TDR2 whole entry): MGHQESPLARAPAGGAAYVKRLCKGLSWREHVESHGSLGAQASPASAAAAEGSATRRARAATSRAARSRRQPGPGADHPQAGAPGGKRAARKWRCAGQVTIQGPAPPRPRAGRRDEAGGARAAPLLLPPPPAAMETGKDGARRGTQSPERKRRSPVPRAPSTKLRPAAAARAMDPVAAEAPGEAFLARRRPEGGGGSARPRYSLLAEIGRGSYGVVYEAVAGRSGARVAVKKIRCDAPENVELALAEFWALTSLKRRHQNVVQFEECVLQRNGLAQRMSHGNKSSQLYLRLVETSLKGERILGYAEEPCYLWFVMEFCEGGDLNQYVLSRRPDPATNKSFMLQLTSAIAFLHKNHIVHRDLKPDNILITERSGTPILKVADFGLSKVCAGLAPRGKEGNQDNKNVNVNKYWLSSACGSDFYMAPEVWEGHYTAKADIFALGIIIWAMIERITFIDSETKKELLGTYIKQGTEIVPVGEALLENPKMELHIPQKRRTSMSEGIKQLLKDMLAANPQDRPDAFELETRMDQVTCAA
Sequence of PIM2 (Q9P1W9 whole entry): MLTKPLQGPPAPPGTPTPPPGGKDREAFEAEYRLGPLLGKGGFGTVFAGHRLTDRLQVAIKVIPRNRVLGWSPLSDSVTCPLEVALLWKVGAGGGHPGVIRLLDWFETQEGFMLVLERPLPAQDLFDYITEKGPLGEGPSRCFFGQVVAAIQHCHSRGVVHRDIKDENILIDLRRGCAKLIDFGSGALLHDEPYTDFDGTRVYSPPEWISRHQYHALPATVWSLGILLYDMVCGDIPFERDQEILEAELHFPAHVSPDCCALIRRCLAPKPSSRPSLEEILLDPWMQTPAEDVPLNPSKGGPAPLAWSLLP
Sequence of CSNK1E (P49674 whole entry): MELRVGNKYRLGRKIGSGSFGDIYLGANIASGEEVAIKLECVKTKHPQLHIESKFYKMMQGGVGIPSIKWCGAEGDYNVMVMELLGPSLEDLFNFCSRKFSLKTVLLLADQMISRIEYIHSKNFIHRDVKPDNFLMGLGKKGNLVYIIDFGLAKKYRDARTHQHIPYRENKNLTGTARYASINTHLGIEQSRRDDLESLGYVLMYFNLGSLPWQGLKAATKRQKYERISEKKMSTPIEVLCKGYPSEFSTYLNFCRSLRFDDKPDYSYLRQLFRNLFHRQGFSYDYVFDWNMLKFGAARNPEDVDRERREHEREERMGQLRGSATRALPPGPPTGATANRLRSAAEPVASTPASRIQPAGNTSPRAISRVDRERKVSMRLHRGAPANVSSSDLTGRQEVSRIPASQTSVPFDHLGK

Compound: CC#CC(=O)N1CCC[C@H]1c1nc(-c2ccc(C(=O)Nc3ccccn3)cc2)c2c(N)nccn12 [Acalabrutinib]
- remaining binding at 0.3 µM [1, 15]: 92%
- remaining binding at 0.3 µM [2, 15]: 96%
- remaining binding at 0.3 µM [3, 15]: 95%
- remaining binding at 0.3 µM [4, 15]: 90%
- remaining binding at 0.3 µM [5, 15]: 91%
- remaining binding at 0.3 µM [6, 15]: 11%
- remaining binding at 0.3 µM [7, 15]: 94%
- remaining binding at 0.3 µM [8, 15]: 4.1%
- remaining binding at 0.3 µM [9, 15]: 94%
- remaining binding at 0.3 µM [10, 15]: 93%
- remaining binding at 0.3 µM [11, 15]: 89%

Compound: C=CC(=O)N1CCC[C@@H](n2nc(-c3ccc(Oc4ccccc4)cc3)c3c(N)ncnc32)C1 [Ibrutinib]
- remaining binding at 0.3 µM [1, 16]: 98%
- remaining binding at 0.3 µM [2, 16]: 86%
- remaining binding at 0.3 µM [3, 16]: 84%
- remaining binding at 0.3 µM [4, 16]: 89%
- remaining binding at 0.3 µM [12, 16]: 48%
- remaining binding at 0.3 µM [5, 16]: 94%
- remaining binding at 0.3 µM [13, 16]: 96%
- remaining binding at 0.3 µM [14, 16]: 96%
- remaining binding at 0.3 µM [8, 16]: 6%
- remaining binding at 0.3 µM [9, 16]: 84%
- remaining binding at 0.3 µM [10, 16]: 92%
- remaining binding at 0.3 µM [11, 16]: 79%

Compound: CC#CC(=O)N1CC[C@@H](n2c(=O)n(-c3ccc(Oc4ccccc4)cc3)c3c(N)ncnc32)C1 [Tirabrutinib]
- remaining binding at 0.3 µM [1, 17]: 98%
- remaining binding at 0.3 µM [3, 17]: 93%
- remaining binding at 0.3 µM [12, 17]: 93%
- remaining binding at 0.3 µM [13, 17]: 99%
- remaining binding at 0.3 µM [6, 17]: 36%
- remaining binding at 0.3 µM [14, 17]: 82%
- remaining binding at 0.3 µM [7, 17]: 82%
- remaining binding at 0.3 µM [8, 17]: 7.8%
- remaining binding at 0.3 µM [9, 17]: 90%
- remaining binding at 0.3 µM [10, 17]: 72%
- remaining binding at 0.3 µM [11, 17]: 95%

Compound: C=CC(=O)N1CCC([C@@H]2CCNc3c(C(N)=O)c(-c4ccc(Oc5ccccc5)cc4)nn32)CC1 [Zanubrutinib]
- remaining binding at 0.3 µM [1, 18]: 100%
- remaining binding at 0.3 µM [2, 18]: 92%
- remaining binding at 0.3 µM [3, 18]: 90%
- remaining binding at 0.3 µM [4, 18]: 100%
- remaining binding at 0.3 µM [12, 18]: 90%
- remaining binding at 0.3 µM [5, 18]: 94%
- remaining binding at 0.3 µM [13, 18]: 96%
- remaining binding at 0.3 µM [6, 18]: 16%
- remaining binding at 0.3 µM [14, 18]: 91%
- remaining binding at 0.3 µM [7, 18]: 82%
- remaining binding at 0.3 µM [8, 18]: 20%
- remaining binding at 0.3 µM [9, 18]: 85%
- remaining binding at 0.3 µM [10, 18]: 100%
